From ChEMBL document CHEMBL3046062, “Anti-HIV, antimycobacterial and antimicrobial studies of newly synthesized 1,2,4-triazole clubbed benzothiazoles” (Med Chem Res, 2013)
≈ marks a conversion by molar mass, not a printed value.

Legend:
Escherichia coli = assay: Antibacterial activity against Escherichia coli MTCC 442 after overnight incubation by broth microdilution method; format: functional
[1] = Cytotoxicity against Homo sapiens (human) MT4 cells after 5 days by MTT assay; format: cell-based
Aspergillus clavatus = assay: Antifungal activity against Aspergillus clavatus MTCC 323 after overnight incubation by broth microdilution method; format: functional
Streptococcus pyogenes = assay: Antibacterial activity against Streptococcus pyogenes MTCC 443 after overnight incubation by broth microdilution method; format: functional
[2] = system: Mycobacterium tuberculosis; assay: Antitubercular activity against Mycobacterium tuberculosis H37Rv after 28 days by Lowenstein-Jensen agar method; format: functional; conditions: 672 h
Aspergillus niger = assay: Antifungal activity against Aspergillus niger MTCC 282 after overnight incubation by broth microdilution method; format: functional
[3] = system: Human immunodeficiency virus 2; assay: Antiviral activity against Human immunodeficiency virus type 2 (ISOLATE ROD) infected MT4 cells assessed as inhibition of virus-induced cytopathogenicity after 5 days by MTT assay; format: functional, organism-based; conditions: Human immunodeficiency virus 2, ISOLATE ROD, MT4, 120 h
Staphylococcus aureus = assay: Antibacterial activity against Staphylococcus aureus MTCC 96 after overnight incubation by broth microdilution method; format: functional
[4] = Selectivity index, ratio of CC50 for human MT4 cells to IC50 for HIV2 ROD; format: functional
Candida albicans = assay: Antifungal activity against Candida albicans MTCC 227 after overnight incubation by broth microdilution method; format: functional
[5] = system: Human immunodeficiency virus 1; assay: Antiviral activity against Human immunodeficiency virus 1 IIIB infected MT4 cells assessed as inhibition of virus-induced cytopathogenicity after 5 days by MTT assay; format: functional, organism-based; conditions: MT4, 120 h
[6] = system: Mycobacterium tuberculosis; assay: Growth inhibition of Mycobacterium tuberculosis H37Rv at MIC after 28 days by Lowenstein-Jensen agar method; format: functional
Pseudomonas aeruginosa = assay: Antibacterial activity against Pseudomonas aeruginosa MTCC 2488 after overnight incubation by broth microdilution method; format: functional
[7] = Selectivity index, ratio of CC50 for human MT4 cells to IC50 for HIV1 3B; format: functional

SMILES	MIC99 (Escherichia coli)	CC50 at 120 h [1]	MIC99 (Aspergillus clavatus)	MIC99 (Streptococcus pyogenes)	MIC [2]	MIC99 (Aspergillus niger)	IC50 [3]	MIC99 (Staphylococcus aureus)	Ratio CC50/IC50 [4]	MIC99 (Candida albicans)	IC50 [5]	growth inhibition (GI) [6]	MIC99 (Pseudomonas aeruginosa)	Ratio CC50/IC50 [7]
Clc1ccc(-c2nnc(-c3cccnc3)o2)cc1	500 µg/mL (≈ 1940 µM)	4.49 µg/mL (≈ 17.4 µM)	1000 µg/mL (≈ 3880 µM)	250 µg/mL (≈ 970 µM)	500 µg/mL (≈ 1940 µM)	1000 µg/mL (≈ 3880 µM)	> 4.49 µg/mL	200 µg/mL (≈ 776 µM)	<1	500 µg/mL (≈ 1940 µM)	> 4.49 µg/mL	98%	500 µg/mL (≈ 1940 µM)	<1
Fc1ccc2nc(Nn3c(-c4ccc(Cl)cc4)nnc3-c3cccnc3)sc2c1	500 µg/mL (≈ 1180 µM)	92.9 µg/mL (≈ 220 µM)	500 µg/mL (≈ 1180 µM)	500 µg/mL (≈ 1180 µM)	62.5 µg/mL (≈ 148 µM)	500 µg/mL (≈ 1180 µM)	> 92.9 µg/mL	250 µg/mL (≈ 591 µM)	<1	200 µg/mL (≈ 473 µM)	> 92.9 µg/mL	98%	62.5 µg/mL (≈ 148 µM)	<1
Clc1ccc(-c2nnc(-c3cccnc3)n2Nc2nc3ccc(Br)cc3s2)cc1	500 µg/mL (≈ 1030 µM)	29.6 µg/mL (≈ 61.2 µM)	1000 µg/mL (≈ 2070 µM)	1000 µg/mL (≈ 2070 µM)	500 µg/mL (≈ 1030 µM)	500 µg/mL (≈ 1030 µM)	> 29.6 µg/mL	500 µg/mL (≈ 1030 µM)	<1	100 µg/mL (≈ 207 µM)	> 29.6 µg/mL	96%	500 µg/mL (≈ 1030 µM)	<1
